# According to doi:10.64898/2025.12.08.692997v2 (biorxiv, 2025):
# Counter-ions that a name gives are not always drawn.
# Tests used:
# [1] = target: T1, human EphB2-His ectodomain - human EphrinB2-Fc ectodomain (EphB2-EphrinB2 tetramer) (Homo sapiens, UniProt P29323+P52799); assay: biochemical; conditions: EphrinB2-EphB2 IC50 (Absolute, µM)
# [2] = target: T1, human EphB2-His ectodomain - human EphrinB2-Fc ectodomain (EphB2-EphrinB2 tetramer); assay: biochemical; conditions: EphrinB2-EphB2 IC50 (Relative, µM)
# T1 sequence (P52799 28-229): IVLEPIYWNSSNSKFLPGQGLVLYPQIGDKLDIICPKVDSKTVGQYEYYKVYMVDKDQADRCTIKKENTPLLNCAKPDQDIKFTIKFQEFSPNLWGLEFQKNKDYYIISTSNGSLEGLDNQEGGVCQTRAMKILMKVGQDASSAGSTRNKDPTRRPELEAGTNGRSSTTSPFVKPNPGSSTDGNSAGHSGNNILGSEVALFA
# T1 sequence (P29323 19-543): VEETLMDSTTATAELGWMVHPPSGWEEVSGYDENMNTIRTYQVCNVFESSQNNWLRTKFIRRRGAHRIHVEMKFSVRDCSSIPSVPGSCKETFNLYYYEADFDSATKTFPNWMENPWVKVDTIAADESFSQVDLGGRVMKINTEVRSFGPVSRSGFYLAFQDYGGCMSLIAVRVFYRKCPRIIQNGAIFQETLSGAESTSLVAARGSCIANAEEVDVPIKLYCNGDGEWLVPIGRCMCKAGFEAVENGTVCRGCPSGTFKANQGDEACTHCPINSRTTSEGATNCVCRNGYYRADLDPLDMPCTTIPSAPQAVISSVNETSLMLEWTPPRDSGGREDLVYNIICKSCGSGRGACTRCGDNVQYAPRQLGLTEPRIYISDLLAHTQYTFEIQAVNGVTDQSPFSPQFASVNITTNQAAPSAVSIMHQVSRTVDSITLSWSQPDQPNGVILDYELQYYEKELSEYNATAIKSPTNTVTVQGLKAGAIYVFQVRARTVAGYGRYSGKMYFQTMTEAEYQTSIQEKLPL
IC50 [1],IC50 [2],SMILES
> 3.2 µM,–,"COc1ccccc1N1CCN(Cc2ccc(O)c3ncccc23)CC1 [3511-0013-BF, 5-((4-(2-methoxyphenyl)piperazin-1-yl)methyl)quinolin-8-ol]"
> 1.6 µM,> 1.6 µM,"COc1ccc2[nH]cc(C(=O)N3CCN(c4ccc(Br)cc4)CC3)c2c1 [IPB4, (4-(4-bromophenyl)piperazin-1-yl)(5-methoxy-1H-indol-3-yl)methanone]"
> 3.2 µM,> 3.2 µM,"COc1ccc2[nH]cc(C(=O)N3CCOCC3)c2c1 [IM, (5-methoxy-1H-indol-3-yl)(morpholino)methanone]"
> 6.4 µM,–,"Oc1ccc(CN2CCOCC2)c2cccnc12 [A19 . 2 HCl, 4-((8-hydroxyquinolin-1-ium-5-yl)methyl)morpholin-4-ium chloride]"
> 1.6 µM,–,"O=S1(=O)CCN(Cc2cc(I)c(O)c3ncccc23)CC1 [QTM-I . 2 HCl, 4-((8-hydroxy-7-iodoquinolin-1-ium-5-yl)methyl)thiomorpholin-4-ium 1,1-dioxide chloride]"
0.78 µM,–,"Oc1c(Br)cc(CN2CCOCC2)c2cccnc12 [A20 . 2 HCl, 4-((7-bromo-8-hydroxyquinolin-1-ium-5-yl)methyl)morpholin-4-ium chloride]"
> 1.6 µM,–,"Oc1ccc(CN2CCN(c3ccc(I)cc3)CC2)c2cccnc12 [QPI4 . 2HCl, 8-hydroxy-5-((4-(4-iodophenyl)piperazin-1-ium-1-yl)methyl)quinolin-1-ium chloride]"
> 3.2 µM,–,"OCc1ccc2c(CN3CCOCC3)cc(Br)c(O)c2n1 [2OH-A20, 7-bromo-2-(hydroxymethyl)-5-(morpholinomethyl)quinolin-8-ol]"
> 3.2 µM,–,"Oc1ccc(CN2CCN(c3ccc(Br)cn3)CC2)c2cccnc12 [QPP. 2 HCl, 5-((4-(5-bromopyridin-2-yl)piperazin-1-ium-1-yl)methyl)-8-hydroxyquinolin-1-ium chloride]"
> 1.6 µM,> 1.6 µM,"Oc1ccc(CN2CCN(c3ccccc3)CC2)c2cccnc12 [QPPh . 2HCl, 8-hydroxy-5-((4-phenylpiperazin-1-ium-1-yl)methyl)quinolin-1-ium chloride]"
> 1.6 µM,> 1.6 µM,"Oc1ccc(CN2CCN(c3ccc(F)cc3F)CC2)c2cccnc12 [QPDF, 5-((4-(2,4-difluorophenyl)piperazin-1-yl)methyl)quinolin-8-ol]"
> 3.2 µM,–,"O=[N+]([O-])c1cc(CN2CCS(=O)(=O)CC2)c2cccnc2c1O [QTM-NO2, 4-((8-hydroxy-7-nitroquinolin-5-yl)methyl)thiomorpholine 1,1-dioxide]"
> 3.2 µM,–,"CC(=O)Nc1ccc(N2CCN(Cc3ccc(O)c4ncccc34)CC2)cc1 [QPA-Ac, N-(4-(4-((8-hydroxyquinolin-5-yl)methyl)piperazin-1-yl)phenyl)acetamide]"
> 3.2 µM,–,"Oc1c(Br)cc(CN2CCN(Cc3ccc(Br)cc3)CC2)c2cccnc12 [BQPB4-Bn, 7-bromo-5-((4-(4-bromobenzyl)piperazin-1-yl)methyl)quinolin-8-ol]"
> 1.6 µM,–,"COc1ccccc1N1CCN(Cc2cc(Br)c(O)c3ncccc23)CC1 [3511-0013, 7-bromo-5-((4-(2-methoxyphenyl)piperazin-1-yl)methyl)quinolin-8-ol]"
> 1.6 µM,–,"Oc1ccc(CN2CCN(c3ccc(Br)cc3)CC2)c2cccnc12 [QPB4 . 2 HCl, 5-((4-(4-bromophenyl)piperazin-1-ium-1-yl)methyl)-8-hydroxyquinolin-1-ium chloride]"
> 3.2 µM,–,"Cc1ccc2c(CN3CCOCC3)cc(Br)c(O)c2n1 [2-MeA20, 7-bromo-2-methyl-5-(morpholinomethyl)quinolin-8-ol]"
> 3.2 µM,–,"Oc1ccc(CN2CCN(c3ccccc3)CC2)c2cccnc12 [QPPh, 5-((4-phenylpiperazin-1-yl)methyl)quinolin-8-ol]"
–,0.62 µM,"O=S1(=O)CCN(Cc2cc(Br)c(O)c3ncccc23)CC1 [QTM-Br . 2 HCl, 4-((7-bromo-8-hydroxyquinolin-1-ium-5-yl)methyl)thiomorpholin-4-ium 1,1-dioxide chloride]"
